The source of these data is patent US10364263B2, “Cyclic phosphates and cyclic phosphoramidates for the treatment of neurologic disorders” (Retrophin, Inc., priority 2015, dated 2019).

A short description of data set [1]: Permeability in porcine brain endothelial cell blood-brain barrier model. The data set is classed as in vitro ADME. Particulars: pig (endothelial cells), co-cultured with rat astrocytes, pH 7.4, PBECs/As blood-brain barrier model, luminal to basal; Diastereoisomer A; read-out: Papp Diastereoisomer A. The source says:
Compounds disclosed herein show the potential to reach mammalian brain by crossing the blood-brain barrier (BBB) from systemic circulation. […] The porcine brain endothelial cell permeability assay is an in vitro BBB model to be used for the prediction of central nervous system (CNS) drug permeability in vivo and for ranking or prioritization of compounds according to their permeability. This system can also be used for mechanistic studies and drug delivery strategies via receptor-mediated transport (transcytosis). The system is a two-dimensional co-culture, non-contact model of two types of primary cells: primary brain endothelial cells obtained from fresh porcine brains, and primary rat astrocytes, obtained from neonatal rats. This ensures barrier formation and functional expression of key transporters.
The endothelial cells were cultured on rat-tail collagen type I and human fibronectin coated Transwell polycarbonate inserts (surface area 0.7 cm^2; pore size 0.4 μm) and the inserts were placed in 24-well plates containing confluent rat astrocytes. This system allows for the formation of a differentiated BBB model suitable for compound permeability in 10 days.
On the day of the experiment, culture medium was removed and cells were pre-incubated for 30 min with HBSS containing 20 mM Hepes pH 7.4 and 0.1% BSA. Donor volume (apical) was 400 μl and receiver volume (basal) 900 μl. Compounds were diluted in assay medium (at the desired concentration) and added to the luminal side (to mimic blood to brain passage). Transport was measured usually after 60 min by detecting the amount of compound from the basal (brain side). The integrity of the cell layers was assessed by measuring the transendothelial electrical resistance (TEER) and by monitoring FITC-dextran (40 KDa) permeation. Inserts with TEER values […] were selected for permeability studies. As FITC-dextran cannot freely permeate lipophilic barriers, a high degree of FITC-dextran transport indicates poor integrity of the cell layer and wells with high FITC-dextran permeability were excluded. FITC-dextran was included as internal control in each insert used for permeability studies. Fluorescence was measured using a fluorimetric detector. Radioactivity was measured by scintillation counting. For LC-MS/MS analysis, aliquots (200 μl) from the basal compartment were diluted with an equal volume of 100% acetonitrile containing 0.1% formic acid, centrifuged to remove cell debris, and evaporated under N2. After reconstitution, samples were analyzed by LC-MS/MS. Mass balance was determined considering the amount of compound recovered in the donor and receiver chamber at the end of the assay relative to the amount added to the donor chamber at time 0.
Permeability was defined as the apparent permeability coefficient (Papp), which is a measure of the appearance rate of the compound in the receiver chamber, expressed in cm/s. Papp is calculated according the following equation: Papp[cm/sec]=Vd*ΔMr/A*Md*Δt, Equation 2: where
Vd=volume in the donor compartment in cm^3 or mL;
ΔMr=total amount of compound in the receiver compartment after t seconds;
Md=donor amount (added at time 0)
Δt=time measured in seconds
A=filter area in cm^2 (for 24 well plate, A=0.7 cm^2).
To correct for the contribution of filter and substrate, Papp was also determined for the cell-free system. Permeability of the endothelial cell layer was determined using the following equation: […], Equation 3: where
Ptotal=the P of the total system,
Pf=P for the cell-free filter, and
Pe=P for the endothelial cell layer alone. In this equation, the total resistance of the system towards passage of a substance is additively composed of two […] resistances: that of the cell monolayer and that of the filter.

Data set [2] can be described thus: Stability in mouse hepatocytes. Particulars: Diastereoisomer A (upfield shift in 31P NMR), 5 μM, 1 million cells/ml, 37° C., mouse hepatocytes, read-out: t1/2, Mouse Hepatocytes, Diastereoisomer A (converted). Type of data set: in vitro ADME.
The nature of data set [3]: Stability in human hepatocytes. Type of data set: in vitro ADME. Particulars: Diastereoisomer A (upfield shift in 31P NMR), 5 μM, 1 million cells/ml, 37° C., human hepatocytes, read-out: t1/2, Human Hepatocytes, Diastereoisomer A (converted).
Data set [4] in a line: physchem. Particulars: buffer, phosphate buffered saline, 10 mM phosphate buffer pH 7.5, 37° C.
Method: To measure chemical stability in aqueous solution, the half-life (t1/2), or time needed for the concentration to decrease by half, was determined for select compounds in phosphate buffered saline solution. Compounds were dissolved in a solution containing 10 mM phosphate buffer (pH 7.5) and 5% of D2O to a final concentration of −1 mM. All spectra were obtained at 37° C. on a Bruker Avance 600 NMR spectrometer equipped with an inverse broad-band probe with z-gradients. Data were obtained every 15 min for a total time period of 4 h or longer, according to the observed stability. ^31P NMR was performed at 242.55 MHz, with gated decoupling of the protons. An observation frequency range of 14619.9 Hz and 32 K complex data points were used for acquisition. A pulse angle of 90° and a 4-sec pulse cycle were utilized. Thirty-two accumulations were obtained before Fourier transformation of the free induction decay. ^1H NMR spectra were acquired using the 1DNOESY experiment with water presaturation for better solvent suppression. An observation frequency range of 12019.23 Hz, a 10-sec pulse cycle, and 32 K complex data points were used for acquisition. Sixty-four scans were added prior to Fourier transformation. Integral data were obtained using the TopSpin software.
Stability was determined based on analysis of disappearance of the compounds as a function of incubation time. Quantification of test compounds was measured as a peak area relative to an internal standard. The elimination constant, k, was calculated by plotting mean disappearance values on a semi-logarithmic scale and fitting with a best fit linear regression. The half-life (t1/2) expressed in hours was derived using Equation 1: t1/2=ln2/(−k). Equation 1:
Data set [5] concerns PANK2 silenced human neuroblastoma IMR32 cells (PANK2−/−). Nature of the data set: Coenzyme A assay in PANK2 silenced cells (LC-MS quantification of free CoA). The data set is classed as cell-based. Particulars: compound added twice (24 h + 24 h), relative to 0.1% DMSO controls. An outline of the steps: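 PANK2 shRNA-silenced IMR32 neuroblastoma cells were treated with compound (0.1% DMSO) for 24 h, then re-dosed with fresh compound for a further 24 h at 37 °C. TFA extracts of 1×10^6 cells were assayed for free CoA by LC-MS/MS (MRM 768.1→261.6/136.1). Results are given as fold change versus DMSO controls.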

Where [6] appears, read: pH 7.5, t1/2 (h) Diastereoisomer A, Diastereoisomer A = upfield shift in the 31P NMR.
Where [7] appears, read: pH 7.5, t1/2 (h) Diastereoisomer B, Diastereoisomer B.

Regarding `COC(=O)CCNC(=O)[C@@H]1O[P@@](=O)(NCc2ccccc2)OCC1(C)C` [Compound No. 115, Methyl 3-((2R,4R)-2-(benzylamino)-5,5-dimethyl-2-oxido-1,3,2-dioxaphosphinane-4-carboxamido)propanoate], the Papp A→B at 60 min in data set [1] turned out to be 4.03 ×10⁻⁶ cm/s. The half-life at 5 µM in data set [2] is below 0.25 h. The half-life is 0.64 h in data set [3] and above 60 h in data set [4] (setting [6]).
With `COC(=O)CCNC(=O)[C@@H]1OP(=O)(N[C@H]2CN[C@@H](C(=O)OC)C2)OCC1(C)C` (stereo partly drawn) [compound 132, methyl (2R,4R)-4-(((4R)-4-((3-methoxy-3-oxopropyl)carbamoyl)-5,5-dimethyl-2-oxido-1,3,2-dioxaphosphinan-2-yl)amino) pyrrolidine-2-carboxylate], the half-life at 5 µM in data set [2] is 0.91 h. In addition, the half-life was 2.39 h in data set [3], 4.8 h in data set [4] (setting [6]) and 3.6 h in data set [4] (setting [7]). Besides, the “PANK2−/− CoA (Fold Increase): fold increase in Coenzyme A (CoA) levels relative to controls” value in data set [5] was determined as 1.88 Fold Increase.
As for `CCC(CC)COC(=O)[C@H](C)NP1(=O)OCC(C)(C)[C@H](C(=O)NCCC(=O)OC)O1` (stereo partly drawn) [compound 7, 2-ethylbutyl ((4R)-4-((3-methoxy-3-oxopropyl)carbamoyl)-5,5-dimethyl-2-oxido-1,3,2-dioxaphosphinan-2-yl)-L-alaninate], the “PANK2−/− CoA (Fold Increase): fold increase in Coenzyme A (CoA) levels relative to controls” value in data set [5] is recorded as 1.56 Fold Increase. Further, in data set [4] (setting [6]), the half-life was above 40 h.
Turning to `COC(=O)CCNC(=O)[C@@H]1OP(=O)(NCC2CCCO2)OCC1(C)C` (stereo partly drawn) [compound 116, methyl 3-((4R)-5,5-dimethyl-2-oxido-2-(((tetrahydrofuran-2-yl)methyl)amino)-1,3,2-dioxaphosphinane-4-carboxamido)propanoate], the half-life in data set [4] (setting [6]) and in data set [4] (setting [7]) was above 40 h throughout.
Turning to `COC(=O)CCNC(=O)[C@@H]1OP(N)(=O)OCC1(C)C` (stereo partly drawn) [compound 114, methyl 3-((4R)-2-amino-5,5-dimethyl-2-oxido-1,3,2-dioxaphosphinane-4-carboxamido)propanoate], the half-life in data set [4] (setting [6]) and in data set [4] (setting [7]) was above 40 h each time.
